Measurements published in PubChem BioAssay (NCI).
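Cells were grown in 96-well plates and exposed to each compound for 48 hours at five concentrations; endpoints were interpolated linearly between bracketing concentrations, or set to the highest concentration if not reached. Here, GI50 denotes the concentration required for 50% inhibition of growth. TGI marks complete inhibition of growth.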

Tests used:
Experiment in all cases: NCI-60 cell line screen, 48 h
HT29 colon = tested on: HT29 colon
HCT-15 colon = tested on: HCT-15 colon
CCRF-CEM leukemia = tested on: CCRF-CEM leukemia
HOP-62 NSCLC = tested on: HOP-62 NSCLC
HCT-116 colon = tested on: HCT-116 colon
CAKI-1 renal = tested on: CAKI-1 renal
DU-145 prostate = tested on: DU-145 prostate
MDA-MB-231 breast = tested on: MDA-MB-231 breast
COLO 205 colon = tested on: COLO 205 colon
SK-MEL-5 melanoma = tested on: SK-MEL-5 melanoma
OVCAR-4 ovarian = tested on: OVCAR-4 ovarian
A498 renal = tested on: A498 renal
786-0 renal = tested on: 786-0 renal
UACC-257 melanoma = tested on: UACC-257 melanoma
NCI/ADR-RES ovarian = tested on: NCI/ADR-RES ovarian
SF-268 CNS = tested on: SF-268 CNS
T-47D breast = tested on: T-47D breast
HCC-2998 colon = tested on: HCC-2998 colon
A549 NSCLC = tested on: A549 NSCLC
KM12 colon = tested on: KM12 colon
SR leukemia = tested on: SR leukemia
NCI-H226 lung = tested on: NCI-H226 lung
RXF 393 renal = tested on: RXF 393 renal
HOP-92 NSCLC = tested on: HOP-92 NSCLC
MOLT-4 leukemia = tested on: MOLT-4 leukemia
NCI-H23 lung = tested on: NCI-H23 lung
SK-MEL-28 melanoma = tested on: SK-MEL-28 melanoma
TK-10 renal = tested on: TK-10 renal
SNB-75 CNS = tested on: SNB-75 CNS
OVCAR-8 ovarian = tested on: OVCAR-8 ovarian
U251 CNS = tested on: U251 CNS
SNB-19 CNS = tested on: SNB-19 CNS
EKVX NSCLC = tested on: EKVX NSCLC
MDA-MB-435 = tested on: MDA-MB-435
NCI-H460 lung = tested on: NCI-H460 lung
PC-3 prostate = tested on: PC-3 prostate
BT-549 breast = tested on: BT-549 breast
RPMI-8226 leukemia = tested on: RPMI-8226 leukemia
LOX IMVI melanoma = tested on: LOX IMVI melanoma
IGROV1 ovarian = tested on: IGROV1 ovarian
HL-60(TB) leukemia = tested on: HL-60(TB) leukemia
MCF7 breast = tested on: MCF7 breast
SN12C renal = tested on: SN12C renal
HS 578T breast = tested on: HS 578T breast
MALME-3M melanoma = tested on: MALME-3M melanoma
UO-31 renal = tested on: UO-31 renal
NCI-H522 lung = tested on: NCI-H522 lung
ACHN renal = tested on: ACHN renal
SK-OV-3 ovarian = tested on: SK-OV-3 ovarian
SK-MEL-2 melanoma = tested on: SK-MEL-2 melanoma
SF-295 CNS = tested on: SF-295 CNS
M14 melanoma = tested on: M14 melanoma
SF-539 CNS = tested on: SF-539 CNS
SW-620 colon = tested on: SW-620 colon
K-562 leukemia = tested on: K-562 leukemia
OVCAR-3 ovarian = tested on: OVCAR-3 ovarian
OVCAR-5 ovarian = tested on: OVCAR-5 ovarian
UACC-62 melanoma = tested on: UACC-62 melanoma

`CN(C)c1cc2c(cc1Sc1nc3c(N)nccc3n1CCNCC(C)(C)C)OCO2` showed a GI50 (HT29 colon) of 285 nM, a TGI (HT29 colon) of 11100 nM and a GI50 (HCT-15 colon) of 394 nM. It also gave a TGI (HCT-15 colon) of 14500 nM, a GI50 (CCRF-CEM leukemia) of 317 nM and a TGI (CCRF-CEM leukemia) of 18200 nM. For the same compound, the GI50 (HOP-62 NSCLC) was 2390 nM, the TGI (HOP-62 NSCLC) was 22100 nM and the GI50 (HCT-116 colon) was 381 nM. The TGI (HCT-116 colon) was 13900 nM, the GI50 (CAKI-1 renal) was 591 nM and the TGI (CAKI-1 renal) was 39700 nM. For the same compound, the GI50 (DU-145 prostate) was 732 nM, the TGI (DU-145 prostate) was 18500 nM and the GI50 (MDA-MB-231 breast) was 585 nM. The TGI (MDA-MB-231 breast) was 17100 nM, the GI50 (COLO 205 colon) was 370 nM and the TGI (COLO 205 colon) was 11600 nM. The GI50 (SK-MEL-5 melanoma) was 713 nM, the TGI (SK-MEL-5 melanoma) was 13200 nM and the GI50 (OVCAR-4 ovarian) was 6170 nM. For the same compound, the TGI (OVCAR-4 ovarian) was 46200 nM, the GI50 (A498 renal) was 1460 nM and the TGI (A498 renal) was 10100 nM. It also gave a GI50 (786-0 renal) of 3890 nM, a TGI (786-0 renal) of 21400 nM and a GI50 (UACC-257 melanoma) of 473 nM. The TGI (UACC-257 melanoma) was 11900 nM, the GI50 (NCI/ADR-RES ovarian) was 731 nM and the TGI (NCI/ADR-RES ovarian) was 24700 nM. The GI50 (SF-268 CNS) was 1080 nM, the TGI (SF-268 CNS) was 22400 nM and the GI50 (T-47D breast) was 533 nM. It also gave a TGI (T-47D breast) of 31100 nM, a GI50 (HCC-2998 colon) of 805 nM and a TGI (HCC-2998 colon) of 6030 nM. It also gave a GI50 (A549 NSCLC) of 438 nM, a TGI (A549 NSCLC) of 18700 nM and a GI50 (KM12 colon) of 305 nM. It also gave a TGI (KM12 colon) of 2790 nM, a GI50 (SR leukemia) of 250 nM and a TGI (SR leukemia) of 12200 nM. For the same compound, the GI50 (NCI-H226 lung) was 1690 nM, the TGI (NCI-H226 lung) was 19700 nM and the GI50 (RXF 393 renal) was 665 nM. It also gave a TGI (RXF 393 renal) of 15300 nM, a GI50 (HOP-92 NSCLC) of 334 nM and a TGI (HOP-92 NSCLC) of 2490 nM. For the same compound, the GI50 (MOLT-4 leukemia) was 287 nM, the TGI (MOLT-4 leukemia) was 3540 nM and the GI50 (NCI-H23 lung) was 448 nM. For the same compound, the TGI (NCI-H23 lung) was 22800 nM, the GI50 (SK-MEL-28 melanoma) was 621 nM and the TGI (SK-MEL-28 melanoma) was 15600 nM. It also gave a GI50 (TK-10 renal) of 531 nM, a TGI (TK-10 renal) of 19400 nM and a GI50 (SNB-75 CNS) of 1530 nM. It also gave a TGI (SNB-75 CNS) of 19100 nM, a GI50 (OVCAR-8 ovarian) of 399 nM and a TGI (OVCAR-8 ovarian) of 15800 nM. The GI50 (U251 CNS) was 726 nM, the TGI (U251 CNS) was 14800 nM and the GI50 (SNB-19 CNS) was 1000 nM. It also gave a TGI (SNB-19 CNS) of 24200 nM, a GI50 (EKVX NSCLC) of 1340 nM and a TGI (EKVX NSCLC) of 35200 nM. The GI50 (MDA-MB-435) was 426 nM, the TGI (MDA-MB-435) was 15400 nM and the GI50 (NCI-H460 lung) was 376 nM. For the same compound, the TGI (NCI-H460 lung) was 12100 nM, the GI50 (PC-3 prostate) was 615 nM and the TGI (PC-3 prostate) was 28800 nM. For the same compound, the GI50 (BT-549 breast) was 4220 nM, the TGI (BT-549 breast) was 25000 nM and the GI50 (RPMI-8226 leukemia) was 658 nM. It also gave a TGI (RPMI-8226 leukemia) of 19400 nM, a GI50 (LOX IMVI melanoma) of 417 nM and a TGI (LOX IMVI melanoma) of 4410 nM. It also gave a GI50 (IGROV1 ovarian) of 560 nM, a TGI (IGROV1 ovarian) of 21600 nM and a GI50 (HL-60(TB) leukemia) of 274 nM. For the same compound, the TGI (HL-60(TB) leukemia) was 850 nM, the GI50 (MCF7 breast) was 311 nM and the TGI (MCF7 breast) was 17900 nM. It also gave a GI50 (SN12C renal) of 507 nM, a TGI (SN12C renal) of 25000 nM and a GI50 (HS 578T breast) of 2040 nM. For the same compound, the TGI (HS 578T breast) was 23700 nM, the GI50 (MALME-3M melanoma) was 428 nM and the TGI (MALME-3M melanoma) was 4910 nM. It also gave a GI50 (UO-31 renal) of 640 nM, a TGI (UO-31 renal) of 19000 nM and a GI50 (NCI-H522 lung) of 453 nM. For the same compound, the TGI (NCI-H522 lung) was 14300 nM, the GI50 (ACHN renal) was 573 nM and the TGI (ACHN renal) was greater than 59600 nM. It also gave a GI50 (SK-OV-3 ovarian) of 394 nM, a TGI (SK-OV-3 ovarian) of 15200 nM and a GI50 (SK-MEL-2 melanoma) of 1050 nM. It also gave a TGI (SK-MEL-2 melanoma) of 16900 nM, a GI50 (SF-295 CNS) of 444 nM and a TGI (SF-295 CNS) of 13600 nM. For the same compound, the GI50 (M14 melanoma) was 532 nM, the TGI (M14 melanoma) was 15900 nM and the GI50 (SF-539 CNS) was 1450 nM. The TGI (SF-539 CNS) was 16300 nM, the GI50 (SW-620 colon) was 383 nM and the TGI (SW-620 colon) was 13800 nM. It also gave a GI50 (K-562 leukemia) of 319 nM, a TGI (K-562 leukemia) of 11000 nM and a GI50 (OVCAR-3 ovarian) of 614 nM. For the same compound, the TGI (OVCAR-3 ovarian) was 15800 nM, the GI50 (OVCAR-5 ovarian) was 1120 nM and the TGI (OVCAR-5 ovarian) was 28100 nM. For the same compound, the GI50 (UACC-62 melanoma) was 432 nM and the TGI (UACC-62 melanoma) was 5410 nM.
